{"source": "patent US20170038387A1", "about": "“METHODS FOR TREATING CHRONIC LYMPHOCYTIC LEUKEMIA AND THE USE OF BIOMARKERS AS A PREDICTOR OF CLINICAL SENSITIVITY TO IMMUNOMODULATORY THERAPIES” (Celgene Corporation, priority 2015, published 2017)", "key": {"primary CLL samples": {"test_system": "primary CLL samples", "test": "TMT-tagging and mass-spectrometry profiling of relative protein abundance after compound exposure", "type": "cell-based, human", "source_text": "Data import: Relative abundance (RA) data was imported into the R statistical programming environment v.3.1.2. Proteins with less than one spectral count in any of the three MS runs for each case scenario were filtered out and relative abundance was scale normalized to the same median by using normalizeBetweenArrays( ) function implemented in the limma package for Bioconductor (see Yang et al., Nucleic Acids Research, 30(4), e15 (2002)).\nComparative analysis: RA scores were log 2-transformed to perform direct comparison of compounds exposure versus DMSO control and a paired moderated t-test (see Smyth, Statistical Applications in Genetics and Molecular Biology, 3(1), article 3 (2004)) was performed by using lmfit( ) and eBayes( ) functions form limma package to test differential relative abundance between experimental conditions. For differential analysis across cases, the log-2 fold changes of replicates for two of the case scenarios were considered.\nLinear regression analysis: Linear regression was modeled by using lm( ) function from the stats package. This function provided the correlation coefficients as well as the linear fitted model. Data were assessed for outliers detection within the linear model via the Studentized residuals method (implemented in outlierTest( ) function from car package) and deemed significant if their q-values were under a threshold of 0.05 (5%).\nThe proteins subjected to the analysis were those with more than one spectral count matched in three MS runs representing each case scenario. A total of 6114, 6070, 5982 and 5382 proteins were retained for each case scenario. Differential expression analysis was applied to the high and consistent coverage of 4594 proteins quantified across all case scenarios. FIGS. 2A-2D show distribution of normalized relative abundances for each replicate of the four case scenarios (Cases B1-B4). The standard deviation of each replicate is represented as a stair-plot line at the bottom of the boxplot. FIGS. 3A-3D show heatmaps representing correlations of log 2 fold-changes of protein levels post compound treatment as compared with DMSO across conditions for all case scenarios. Low correlation of log 2 fold-changes at 6 hours may be due to the alteration of a small subset of proteins at an early time point without strong general effects across the proteome. Stronger correlations at 24 hours can be linked to a higher proportion of proteins perturbed reflecting downstream changes upon compound exposure."}, "CLL cell lines": {"test_system": "CLL cell lines", "test": "Thymidine incorporation assay (cell proliferation)", "type": "cell-based", "description": "After four days, cells were diluted 1:7 with fresh media, containing the same concentration of treatment compound. Three days later, ^3H-thymidine was added to label proliferating cells for 6-7 hours. Cells were then harvested onto filter plates for counting on a scintillation counter."}, "[1]": {"conditions": "Cmp A vs. len, Case B1, 10 μM, 24 hours"}, "[2]": {"conditions": "Cmp A vs. len, Case B2, 10 μM, 24 hours"}, "[3]": {"conditions": "Cmp A vs. len, Case B3, 10 μM, 24 hours"}, "[4]": {"conditions": "FIG. 5 heatmap, 10 μM, 24 hours, vs DMSO"}}}
{"smiles": "Cc1nc2cccc(N)c2c(=O)n1C1CCC(=O)NC1=O", "note": "(stereo not drawn) [Compound A, 3-(5-amino-2-methyl-4-oxo-4H-quinazolin-3-yl)-piperidine-2,6-dione]", "values": [{"measurement": "logFC GZMB (P10144)", "setting": "primary CLL samples; [1]", "result": "−1.175"}, {"measurement": "logFC IGHM (P01871-2)", "setting": "primary CLL samples; [1]", "result": "−0.6625"}, {"measurement": "logFC IKZF1 (Q13422)", "setting": "primary CLL samples; [1]", "result": "−1.709"}, {"measurement": "logFC IKZF1 (Q13422-2)", "setting": "primary CLL samples; [1]", "result": "−2.169"}, {"measurement": "logFC IRF8 (Q02556)", "setting": "primary CLL samples; [1]", "result": "−0.5643"}, {"measurement": "logFC KLF13 (Q9Y2Y9)", "setting": "primary CLL samples; [1]", "result": "−1.092"}, {"measurement": "logFC LGALS9 (O00182)", "setting": "primary CLL samples; [1]", "result": "−0.5646"}, {"measurement": "logFC MARCKS (P29966)", "setting": "primary CLL samples; [1]", "result": 1.438}, {"measurement": "logFC NDE1 (Q9NXR1)", "setting": "primary CLL samples; [1]", "result": 0.7281}, {"measurement": "logFC NFKBIE (O00221)", "setting": "primary CLL samples; [1]", "result": "−0.7408"}, {"measurement": "logFC PTK2B (Q14289-2)", "setting": "primary CLL samples; [1]", "result": 0.9815}, {"measurement": "logFC SAMSN1 (Q9NSI8)", "setting": "primary CLL samples; [1]", "result": 0.6554}, {"measurement": "logFC SELL (P14151-2)", "setting": "primary CLL samples; [1]", "result": "−1.823"}, {"measurement": "logFC SLAMF1 (Q13291)", "setting": "primary CLL samples; [1]", "result": 0.9251}, {"measurement": "logFC SNX20 (Q7Z614)", "setting": "primary CLL samples; [1]", "result": "−0.5611"}, {"measurement": "logFC SOD2 (P04179)", "setting": "primary CLL samples; [1]", "result": 0.6081}, {"measurement": "logFC TCF7 (P36402-3)", "setting": "primary CLL samples; [1]", "result": "−0.7071"}, {"measurement": "logFC TRAF1 (Q13077)", "setting": "primary CLL samples; [1]", "result": 0.768}, {"measurement": "logFC WIZ (M0QXA7)", "setting": "primary CLL samples; [1]", "result": "−0.4839"}, {"measurement": "logFC ZBTB10 (Q96DT7)", "setting": "primary CLL samples; [1]", "result": 0.9382}, {"measurement": "logFC IKZF1 (Q13422)", "setting": "primary CLL samples; [2]", "result": "−2.186"}, {"measurement": "logFC IKZF3 (Q9UKT9)", "setting": "primary CLL samples; [2]", "result": "−2.626"}, {"measurement": "logFC CD40 (P25942)", "setting": "primary CLL samples; [3]", "result": 0.8064}, {"measurement": "logFC CR2 (P20023-3)", "setting": "primary CLL samples; [3]", "result": 0.7925}, {"measurement": "logFC CTSS (P25774)", "setting": "primary CLL samples; [3]", "result": 0.5932}, {"measurement": "logFC GBP1 (P32455)", "setting": "primary CLL samples; [3]", "result": 1.117}, {"measurement": "logFC IKZF1 (Q13422)", "setting": "primary CLL samples; [3]", "result": "−2.686"}, {"measurement": "logFC IKZF3 (Q9UKT9)", "setting": "primary CLL samples; [3]", "result": "−1.425"}, {"measurement": "logFC ISG20 (Q96AZ6)", "setting": "primary CLL samples; [3]", "result": 0.6234}, {"measurement": "logFC PTK2B (Q14289-2)", "setting": "primary CLL samples; [3]", "result": 0.8361}, {"measurement": "logFC SAMSN1 (Q9NSI8)", "setting": "primary CLL samples; [3]", "result": 0.89}, {"measurement": "logFC SASH1 (O94885)", "setting": "primary CLL samples; [3]", "result": 0.7177}, {"measurement": "logFC SELL (P14151-2)", "setting": "primary CLL samples; [3]", "result": "−1.03"}, {"measurement": "logFC SEMA7A (O75326)", "setting": "primary CLL samples; [3]", "result": 0.904}, {"measurement": "logFC SLAMF1 (Q13291)", "setting": "primary CLL samples; [3]", "result": 1.086}, {"measurement": "logFC SOD2 (P04179)", "setting": "primary CLL samples; [3]", "result": 0.6319}, {"measurement": "logFC TRAF1 (Q13077)", "setting": "primary CLL samples; [3]", "result": 0.7523}, {"measurement": "logFC PDE6D (O43924)", "setting": "primary CLL samples; Cmp A vs. len, Case B4, 10 μM, 24 hours", "result": "−1.494"}, {"measurement": "IKZF1 (Ikaros) protein level", "setting": "primary CLL samples; [4]", "result": "decreases across all experimental conditions with stronger effect upon Compound A exposure"}, {"measurement": "levels of Group 4 proteins (6 proteins including IKZF3 and a second IKZF1 isoform) upon exposure", "setting": "primary CLL samples; [4]", "result": "decrease significantly"}, {"measurement": "protein abundance levels of Group 3 proteins (SMNX20, SELL, KLF13, WIZ, IKZF1, NFKBIE, TCF7 and IRF8) upon exposure", "setting": "primary CLL samples; [4]", "result": "decrease"}, {"measurement": "STAT1 protein abundance, log 2 fold-change vs DMSO", "setting": "primary CLL samples; resistant scenario (Case B4)", "result": "−0.018"}, {"measurement": "STAT1 protein abundance, log 2 fold-change vs DMSO", "setting": "primary CLL samples; sensitive patient sample (Case B3)", "result": 0.547}, {"measurement": "cell growth inhibition", "setting": "CLL cell lines; 1 μM Compound A vs 10 μM lenalidomide, EHEB, I83-E95, Mec2, CII, and CI", "result": "more cell growth inhibition"}, {"measurement": "responsiveness of cell lines to treatment", "setting": "CLL cell lines; Bucket #1 (EHEB and I83-E95)", "result": "responsive to both compounds"}, {"measurement": "responsiveness of cell lines to treatment", "setting": "CLL cell lines; Bucket #2 (Mec2, CII, and CI)", "result": "more sensitive to Compound A than to lenalidomide"}, {"measurement": "responsiveness of cell lines to treatment", "setting": "CLL cell lines; Bucket #3 (WA-C3-CD5, WA-OSEL, Mec1, and PGA1)", "result": "responsive to Compound A"}, {"measurement": "responsiveness of cell lines to treatment", "setting": "CLL cell lines; Bucket #4 (HG3)", "result": "not responsive to either Compound A or lenalidomide"}]}
